In one assay the test system is PC3 cells. The experiment in a line: PC3 growth inhibition (Cell-titer glo, 72 hours). Type of assay: cell-based. As to conditions: Homo sapiens, PC-3, 72 h, read-out: Percent Viability, PC3 cells, compound concentration 1.667 μM, 72 hours. As for the experimental part: The invention also provides compounds that inhibit cell growth. The ability of a compound of the invention to inhibit the growth of cells can be measured using a variety of methods known in the art. For example, the ability of a compound of the invention to inhibit the growth of PC3 cells can be measured. PC3 cells can be plated and incubated overnight under CO2. For each measurement, a compound of the invention (or vehicle e.g., DMSO) can be diluted with AIM serum free medium and added to the cell plate. The cell plate can then be incubated for 72 h under CO2. Cell-titer glo solution can be added and the plates can be incubated protected from light and the amount of luminescences can be measured. Concentration response curves can be generated by calculating the luminescence increase in test compound treated samples relative to DMSO-treated controls. Percentage remaining viability values at a single concentration can be measured. Growth inhibition (GI50) or cell viability (LD50) values can be determined from thoses curves. In one embodiment, compounds of the invention have a percent viability in PC3 line @ 1.667 uM of <1%. In one embodiment, compounds of the invention have a percent viability in PC3 line @ 1.667 uM of <2%. In one embodiment, compounds of the invention have a percent viability in PC3 line @ 1.667 uM of <3%. In one embodiment, compounds of the invention have a percent viability in PC3 line @ 1.667 uM of <4%. In one embodiment, compounds of the invention have a percent viability in PC3 line @ 1.667 uM of <5%. In one embodiment, compounds of the invention have a percent viability in PC3 line @ 1.667 uM of <10%. In one embodiment, compounds of the invention have a percent viability in PC3 line @ 1.667 uM of <50%.
To measure PC3 growth inhibition, PC3 cells that were maintained in RPMI1640 growth medium (Life Technologies; Cat. No. 11875) at 37° C. under 5% CO2 are trypsinized and diluted at a density of 8×10^4 cells/ml, 25 ul per well of cells and plated in 384-well black tissue culture plate. The cells are incubated overnight at 37° C. under 5% CO2. For each measurement, a test compound or vehicle DMSO control is diluted with AIM serum free medium and added to the cell plate. The cell plate is incubated for 72 hours at 37° C. under 5% CO2. 25 μl Cell-titer glo solution (Promega; Cat. No. G8462) is added and the cell plates are incubated for 10 minutes protected from light. The luminescence is measured. Concentration response curves are generated by calculating the luminescence increase in test compound-treated samples relative to DMSO-treated controls. Percentage remaining viability values at a single concentration, growth inhibition (GI50) or cell viability (LD50) values are determined from those curves. One skilled in the art will appreciate that these values are subject to experimental variation.

The target of a further assay is hNAMPT protein (Homo sapiens (Human), UniProt P43490). Put plainly: NAMPT enzyme assay (TR-FRET/HTRF with BodiPY ligand). As to conditions: for pIC50: NAMPT inhibition, IC50 range class; for inhibition at 1 µM: read-out: Percent Inhibition. Type of assay: binding. The source says:
As discussed above, the invention provides compounds that are useful as inhibitors of the enzyme NAMPT. The NAMPT inhibition of a compound of the invention can be measured using a variety of methods known in the art. For example, the ability of a compound of the invention to inhibit NAMPT enzyme activity can be measured using a homogeneous time resolved fluorescence (HTRF) assay using hNAMPT protein and anti 6His-Tb in buffer treated with a compound of the invention (or control e.g., DMSO) and BodiPY ligand. The TR-FRET signal can be measured using a high throughput microplate reader (e.g., Pherastar). Excitation can be carried out at 320 nm. The percent inhibition value at a single concentration of compound of the invention can be calculated relative to a control treated sample. A concentration response curve can be generated for each compound of the invention and the curve fitted to generate an IC50 value. […] To measure the inhibition of NAMPT activity hNAMPT protein stock and anti 6His-Tb (Cisbio; Cat. No. […]TLB) is diluted to 3× final concentration with assay buffer (50 mM Tris-HCl (pH 7.5), 1 mM DTT, 100 mM NaCl, 10 mM MgCl2, 0.005% Tween 20). To this solution is added a test compound or vehicle control (DMSO) and BodiPY ligand (structure below). The plate is shaken for 1-2 min sealed and incubated for 1 h at rt in the dark. The TR-FRET signal is measured using BMG Pherastar (Lanthascreen protocol on BMG Pherastar). Excitation was carried out at 320 nm, and the ratio of emission of BodiPY (520 nm) to terbium (486 nm) was determined. Concentration response curves are generated by calculating the excitation increase in test compound-treated samples relative to DMSO-treated controls. For the assay method described above, test compound percent inhibition values at a single concentration are calculated relative to control (DMSO) treated samples. Compound concentration response curves are fitted to generate IC50 values from those curves. One skilled in the art will appreciate that these values generated either as percentage inhibition at a single concentration or IC50 values are subject to experimental variation.
A general note: TR-FRET usually uses a lanthanide donor and a delayed reading to cut background.

Where [1] appears, read: NAMPT inhibition at compound concentration 1 μM.

pIC50: −log10 of the molar value. Read-outs that look alike come from different tables or passages of the source.

The pIC50 is the IC50 on a negative log10 scale, so that one unit is a factor of ten. Lower therefore signals a high IC50. For orientation: inhibition means how much of the control response was suppressed.

Sequence of hNAMPT protein (P43490 whole entry): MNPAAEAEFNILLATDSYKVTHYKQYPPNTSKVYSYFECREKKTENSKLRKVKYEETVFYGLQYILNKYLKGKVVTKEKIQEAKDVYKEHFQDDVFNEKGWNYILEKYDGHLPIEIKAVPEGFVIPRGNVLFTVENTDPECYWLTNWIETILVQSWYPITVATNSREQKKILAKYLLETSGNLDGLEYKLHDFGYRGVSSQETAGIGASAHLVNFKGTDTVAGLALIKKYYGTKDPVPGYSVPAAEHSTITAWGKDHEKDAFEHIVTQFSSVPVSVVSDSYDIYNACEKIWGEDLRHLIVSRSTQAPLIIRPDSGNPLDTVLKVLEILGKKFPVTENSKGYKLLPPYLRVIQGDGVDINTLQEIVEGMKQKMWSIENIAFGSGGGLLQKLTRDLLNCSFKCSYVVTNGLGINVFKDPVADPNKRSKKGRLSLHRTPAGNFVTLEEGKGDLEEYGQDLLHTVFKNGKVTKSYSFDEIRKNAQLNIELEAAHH

As for `COCc1nc(-c2ccc(Cl)cc2)nc2cc(C(=O)NCCCc3ncc[nH]3)ccc12` [Compound I-25, 2-(4-chlorophenyl)-N-[3-(1H-imidazol-2-yl)propyl]-4-(methoxymethyl)quinazoline-7-carboxamide], the viability at 1.667 µM in the assay on PC3 cells came out at 0%. For the same compound, on hNAMPT protein, the negative-log IC50 (pIC50) was above 8.00 and the inhibition at 1 µM came out at 99%.
For the compound `O=C(NCCCc1ncc[nH]1)c1ccc2c(CN3CCSCC3)nc(-c3ccc(Cl)cc3)nc2c1` [Compound I-26, 2-(4-chlorophenyl)-N-[3-(1H-imidazol-2-yl)propyl]-4-(thiomorpholin-4-ylmethyl)quinazoline-7-carboxamide], the viability at 1.667 µM in the assay with PC3 cells came to 1%. Besides, the inhibition at 1 µM at hNAMPT protein (setting [1]) turned out to be 89%. The compound further had a pIC50 on hNAMPT protein below 7.00.
`CCSc1nc(-c2ccc(F)cc2)nc2cc(C(=O)NCCCc3ncc[nH]3)ccc12` [Compound I-27, 4-(ethylsulfanyl)-2-(4-fluorophenyl)-N-[3-(1H-imidazol-2-yl)propyl]quinazoline-7-carboxamide]: the viability at 1.667 µM in the assay with PC3 cells turned out to be 1%. For the same compound, at hNAMPT protein, the pIC50 was above 8.00 and the inhibition at 1 µM was 98%.
For `CCOc1nc(-c2ccc(Cl)s2)nc2cc(C(=O)NCc3ccc4nccn4c3)ccc12` [Compound I-28, 2-(5-chloro-2-thienyl)-4-ethoxy-N-(imidazo[1,2-a]pyridin-6-ylmethyl)quinazoline-7-carboxamide], the viability at 1.667 µM in the assay with PC3 cells came to 1%. Further, the inhibition at 1 µM at hNAMPT protein (setting [1]) amounted to 99%. This compound also had a negative logarithm of the IC50 (pIC50) on hNAMPT protein above 8.00.
As for `CCOc1nc(-c2ccc(F)cc2)nc2cc(C(=O)NCCCc3ccnnc3)ccc12` [Compound I-29, 4-ethoxy-2-(4-fluorophenyl)-N-[3-(pyridazin-4-yl)propyl]quinazoline-7-carboxamide], in the assay with PC3 cells, the viability at 1.667 µM worked out at 1%. Further, at hNAMPT protein (setting [1]), the inhibition at 1 µM turned out to be 100%. This compound showed a negative logarithm of the IC50 (pIC50) against hNAMPT protein above 8.00.
In the same order, the values of `CC(C)(C)OCc1nc(-c2ccc(Cl)cc2)nc2cc(C(=O)NCCCc3ncc[nH]3)ccc12` [Compound I-30, 4-(tert-butoxymethyl)-2-(4-chlorophenyl)-N-[3-(1H-imidazol-2-yl)propyl]quinazoline-7-carboxamide] are 1%, 91% and 7.00 to 7.30.
For `O=C(NCCCc1ncc[nH]1)c1ccc2c(C3CC3)nc(-c3ccc(Cl)cc3)nc2c1` [Compound I-31, 2-(4-chlorophenyl)-4-cyclopropyl-N-[3-(1H-imidazol-2-yl)propyl]quinazoline-7-carboxamide], in that order: 1%, 97% and 7.30 to 8.00.
In the same order, the values of `CCOc1nc(-c2ccc(F)cc2)nc2cc(C(=O)NCCCc3ncc[nH]3)ccc12` [Compound I-32, 4-ethoxy-2-(4-fluorophenyl)-N-[3-(1H-imidazol-2-yl)propyl]quinazoline-7-carboxamide] are 2%, above 99% and above 8.00.
On to `CCc1nc(-c2ccc(Cl)cc2)nc2cc(C(=O)NCCCc3ncc[nH]3)ccc12` [Compound I-33, 2-(4-chlorophenyl)-4-ethyl-N-[3-(1H-imidazol-2-yl)propyl]quinazoline-7-carboxamide], for which the viability at 1.667 µM in the assay with PC3 cells came to 1%. At hNAMPT protein (setting [1]), the inhibition at 1 µM was determined as 97%. On hNAMPT protein, this compound had a negative-log IC50 (pIC50) of 7.30 to 8.00.
For `CCOc1nc(-c2ccc(F)cc2)nc2cc(C(=O)NCc3ccc4nccn4c3)ccc12` [Compound I-34, 4-ethoxy-2-(4-fluorophenyl)-N-(imidazo[1,2-a]pyridin-6-ylmethyl)quinazoline-7-carboxamide], in that order: 1%, 97% and above 8.00.
Regarding `CCOc1nc(-c2ccc(Cl)s2)nc2cc(C(=O)NCCCc3ncc[nH]3)ccc12` [Compound I-35, 2-(5-chloro-2-thienyl)-4-ethoxy-N-[3-(1H-imidazol-2-yl)propyl]quinazoline-7-carboxamide], in the assay with PC3 cells, the viability at 1.667 µM was 1%. For the same compound, on hNAMPT protein (setting [1]), the inhibition at 1 µM was above 99%. Further, the pIC50 against hNAMPT protein is above 8.00.
For the compound `CC(C)Oc1nc(-c2ccc(F)cc2)nc2cc(C(=O)NCCCc3ncc[nH]3)ccc12` [Compound I-36, 2-(4-fluorophenyl)-N-[3-(1H-imidazol-2-yl)propyl]-4-isopropoxyquinazoline-7-carboxamide], the viability at 1.667 µM in the assay with PC3 cells was found to be 2%. For the same compound, on hNAMPT protein (setting [1]), the inhibition at 1 µM was above 99%. For the same compound, the pIC50 against hNAMPT protein is above 8.00.
For `COCCOc1nc(-c2ccc(F)cc2)nc2cc(C(=O)NCCCc3ncc[nH]3)ccc12` [Compound I-37, 2-(4-fluorophenyl)-N-[3-(1H-imidazol-2-yl)propyl]-4-(2-methoxyethoxy)quinazoline-7-carboxamide], in that order: 2%, above 99% and above 8.00.
In the case of `CCOc1nc(-c2ccc(Cl)cc2)nc2cc(C(=O)NCCCc3ncc[nH]3)ccc12` [Compound I-38, 2-(4-chlorophenyl)-4-ethoxy-N-[3-(1H-imidazol-2-yl)propyl]quinazoline-7-carboxamide], in the assay on PC3 cells, the viability at 1.667 µM turned out to be 2%. For the same compound, the inhibition at 1 µM on hNAMPT protein (setting [1]) is above 99%. Also, the pIC50 at hNAMPT protein is above 8.00.
In the same order, the values of `CCN(C)c1nc(-c2ccc(F)cc2)nc2cc(C(=O)NCCCc3ncc[nH]3)ccc12` [Compound I-39, 4-[ethyl(methyl)amino]-2-(4-fluorophenyl)-N-[3-(1H-imidazol-2-yl)propyl]quinazoline-7-carboxamide] are 2%, 96% and 7.30 to 8.00.
In the same order, the values of `O=C(NCCCc1ncc[nH]1)c1ccc2c(OCC3CC3)nc(-c3ccc(F)cc3)nc2c1` [Compound I-40, 4-(cyclopropylmethoxy)-2-(4-fluorophenyl)-N-[3-(1H-imidazol-2-yl)propyl]quinazoline-7-carboxamide] are 3%, above 99% and above 8.00.
As to `CCNc1nc(-c2ccc(F)cc2)nc2cc(C(=O)NCCCc3ncc[nH]3)ccc12` [Compound I-41, 4-(ethylamino)-2-(4-fluorophenyl)-N-[3-(1H-imidazol-2-yl)propyl]quinazoline-7-carboxamide], in the assay on PC3 cells, the viability at 1.667 µM was 2%. In addition, the inhibition at 1 µM at hNAMPT protein (setting [1]) turned out to be 92%. On hNAMPT protein, this compound gave a negative logarithm of the IC50 (pIC50) below 7.00.
For `CCNc1cc(OCC)c2ccc(C(=O)NCCCc3ncc[nH]3)cc2n1` [Compound I-42, 4-ethoxy-2-(ethylamino)-N-[3-(1H-imidazol-2-yl)propyl]quinoline-7-carboxamide], in that order: 11%, 83% and below 7.00.
